From ChEMBL document CHEMBL1141885, “N1-arylsulfonyl-3-(1,2,3,6-tetrahydropyridin-4-yl)-1H-indole derivatives are potent and selective 5-HT6 receptor antagonists” (Bioorg Med Chem Lett, 2005)

What was measured:
[1] = biological target: T1, 5-hydroxytryptamine receptor 6 (Homo sapiens, UniProt P50406); test: Inhibitory concentration against 5-HT stimulated cAMP production in HeLa cells stably transfected with human 5-HT6 receptor; assay type: functional, cell-based
[2] = biological target: T1, 5-hydroxytryptamine receptor 6; test: Binding affinity against cloned human 5-hydroxytryptamine 6 receptor expressed in HeLa cells using [3H]LSD; assay type: cell-based
[3] = biological target: T2, 5-hydroxytryptamine receptor 1A (Homo sapiens, UniProt P08908); test: Binding affinity against human cloned 5-hydroxytryptamine 1A receptor stably expressed in CHO cells using DPAT
T2 sequence (P08908 whole entry): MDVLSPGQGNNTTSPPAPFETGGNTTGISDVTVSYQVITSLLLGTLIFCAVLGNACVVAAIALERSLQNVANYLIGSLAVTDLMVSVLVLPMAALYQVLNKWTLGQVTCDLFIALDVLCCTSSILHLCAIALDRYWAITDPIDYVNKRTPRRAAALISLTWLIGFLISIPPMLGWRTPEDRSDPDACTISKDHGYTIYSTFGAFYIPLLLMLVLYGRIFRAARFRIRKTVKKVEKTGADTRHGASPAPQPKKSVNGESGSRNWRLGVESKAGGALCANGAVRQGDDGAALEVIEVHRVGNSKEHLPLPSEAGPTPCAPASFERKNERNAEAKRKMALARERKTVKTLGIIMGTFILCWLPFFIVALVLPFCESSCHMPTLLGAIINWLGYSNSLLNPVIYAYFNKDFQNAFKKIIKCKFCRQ

[4] = biological target: 5-hydroxytryptamine receptor 1B (Homo sapiens) (UniProt P28222); test: Inhibition of [3H]-5-HT binding to human cloned 5-hydroxytryptamine 1B receptor stably expressed in CHO cells at 1 uM; assay type: cell-based
Chain of 5-hydroxytryptamine receptor 1B (Homo sapiens) (P28222 whole entry): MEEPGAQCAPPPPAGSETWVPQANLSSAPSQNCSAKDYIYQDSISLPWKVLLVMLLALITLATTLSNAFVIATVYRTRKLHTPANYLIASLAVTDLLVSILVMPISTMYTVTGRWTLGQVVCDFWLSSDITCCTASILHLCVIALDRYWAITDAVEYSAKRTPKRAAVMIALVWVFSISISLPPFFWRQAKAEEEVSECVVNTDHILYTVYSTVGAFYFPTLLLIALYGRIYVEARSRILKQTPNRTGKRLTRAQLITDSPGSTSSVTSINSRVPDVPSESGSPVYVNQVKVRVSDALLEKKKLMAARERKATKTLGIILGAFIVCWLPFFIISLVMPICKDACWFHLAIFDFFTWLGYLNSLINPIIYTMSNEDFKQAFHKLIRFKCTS

[5] = biological target: 5-hydroxytryptamine receptor 7 (Homo sapiens, UniProt P34969); test: Binding affinity against human cloned 5-hydroxytryptamine 7 receptor stably expressed in CHO cells using [3H]LSD; assay type: cell-based
Chain of 5-hydroxytryptamine receptor 7 (P34969 whole entry): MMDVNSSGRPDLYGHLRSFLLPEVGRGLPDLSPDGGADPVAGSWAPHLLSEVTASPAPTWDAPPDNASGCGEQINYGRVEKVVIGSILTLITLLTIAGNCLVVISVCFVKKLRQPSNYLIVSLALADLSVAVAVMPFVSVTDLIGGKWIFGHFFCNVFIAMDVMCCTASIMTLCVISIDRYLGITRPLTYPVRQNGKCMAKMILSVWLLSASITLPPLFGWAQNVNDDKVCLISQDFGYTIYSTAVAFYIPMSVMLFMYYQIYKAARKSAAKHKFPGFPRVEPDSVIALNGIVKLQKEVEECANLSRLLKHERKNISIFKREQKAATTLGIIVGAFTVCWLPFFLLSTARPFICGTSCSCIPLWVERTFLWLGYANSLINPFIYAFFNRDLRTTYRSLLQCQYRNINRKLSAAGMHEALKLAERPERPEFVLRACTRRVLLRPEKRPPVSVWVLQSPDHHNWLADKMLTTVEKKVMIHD

[6] = biological target: T3, 5-hydroxytryptamine receptor 2C (Homo sapiens) (UniProt P28335); test: Inhibition of [3H]5-HT binding to human cloned 5-hydroxytryptamine 2C receptor stably expressed in CHO cells at 1 uM; assay type: cell-based
T3 sequence (whole entry): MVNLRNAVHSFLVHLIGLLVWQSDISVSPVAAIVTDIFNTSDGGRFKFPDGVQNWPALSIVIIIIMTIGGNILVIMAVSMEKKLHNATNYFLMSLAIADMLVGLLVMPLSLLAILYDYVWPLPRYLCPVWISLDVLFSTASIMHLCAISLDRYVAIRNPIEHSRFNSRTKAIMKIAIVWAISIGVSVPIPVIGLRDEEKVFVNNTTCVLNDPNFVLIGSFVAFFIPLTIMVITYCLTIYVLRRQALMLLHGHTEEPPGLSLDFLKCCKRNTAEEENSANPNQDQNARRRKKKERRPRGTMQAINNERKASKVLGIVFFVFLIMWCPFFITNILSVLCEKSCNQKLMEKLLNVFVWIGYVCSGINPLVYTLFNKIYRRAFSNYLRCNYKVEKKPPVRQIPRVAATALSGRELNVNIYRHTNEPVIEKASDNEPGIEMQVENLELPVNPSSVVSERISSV

D(3) dopamine receptor [7] = biological target: T4, D(3) dopamine receptor (Homo sapiens, UniProt P35462); test: Inhibition of [3H]spiperone binding to human cloned Dopamine receptor D3 stably expressed in CHO-K1 cells at 1 uM; assay type: cell-based
T4 sequence (P35462 whole entry): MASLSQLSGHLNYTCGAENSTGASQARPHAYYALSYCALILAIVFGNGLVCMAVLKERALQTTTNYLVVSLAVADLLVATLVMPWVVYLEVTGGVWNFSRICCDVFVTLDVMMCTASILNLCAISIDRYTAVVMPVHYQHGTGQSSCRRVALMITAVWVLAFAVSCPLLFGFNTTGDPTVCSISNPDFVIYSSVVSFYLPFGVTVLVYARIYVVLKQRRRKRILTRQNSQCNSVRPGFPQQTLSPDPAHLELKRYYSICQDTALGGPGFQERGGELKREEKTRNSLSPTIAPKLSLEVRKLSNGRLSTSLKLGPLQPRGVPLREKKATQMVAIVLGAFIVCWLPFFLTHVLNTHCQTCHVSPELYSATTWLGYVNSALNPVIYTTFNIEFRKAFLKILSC

[8] = biological target: T5, D(4) dopamine receptor (Homo sapiens) (UniProt P21917); test: Inhibition of [3H]spiperone binding to human cloned Dopamine receptor D4 stably expressed in CHO-K1 cells at 1 uM; assay type: cell-based
T5 sequence (whole entry): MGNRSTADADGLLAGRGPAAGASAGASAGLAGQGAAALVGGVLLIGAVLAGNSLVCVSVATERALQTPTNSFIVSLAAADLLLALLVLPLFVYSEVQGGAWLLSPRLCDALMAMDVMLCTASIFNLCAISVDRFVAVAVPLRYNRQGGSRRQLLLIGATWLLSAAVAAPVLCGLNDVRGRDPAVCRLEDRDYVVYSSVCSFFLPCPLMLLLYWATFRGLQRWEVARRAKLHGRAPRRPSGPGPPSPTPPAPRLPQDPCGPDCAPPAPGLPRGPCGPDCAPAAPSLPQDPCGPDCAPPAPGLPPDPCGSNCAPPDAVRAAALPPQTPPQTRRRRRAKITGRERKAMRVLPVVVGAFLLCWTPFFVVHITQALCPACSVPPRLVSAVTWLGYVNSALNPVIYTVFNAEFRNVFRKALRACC

[9] = biological target: 5-hydroxytryptamine receptor 1D (Homo sapiens) (UniProt P28221); test: Inhibition of [3H]5-HT binding to human cloned 5-hydroxytryptamine 1D receptor stably expressed in CHO cells at 1 uM; assay type: cell-based
Chain of 5-hydroxytryptamine receptor 1D (Homo sapiens) (P28221 whole entry): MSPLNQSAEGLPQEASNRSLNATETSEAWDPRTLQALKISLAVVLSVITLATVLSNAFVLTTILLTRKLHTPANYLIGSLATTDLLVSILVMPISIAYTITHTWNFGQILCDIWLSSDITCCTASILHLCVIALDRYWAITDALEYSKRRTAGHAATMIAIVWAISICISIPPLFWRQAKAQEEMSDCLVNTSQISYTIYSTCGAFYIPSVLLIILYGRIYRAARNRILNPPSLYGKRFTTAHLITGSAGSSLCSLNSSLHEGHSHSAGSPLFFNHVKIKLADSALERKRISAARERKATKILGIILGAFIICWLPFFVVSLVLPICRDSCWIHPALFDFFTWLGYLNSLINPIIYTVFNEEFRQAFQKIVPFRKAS

[10] = biological target: 5-hydroxytryptamine receptor 2A (Homo sapiens, UniProt P28223); test: Inhibition of [125I]DOI binding to human cloned 5-hydroxytryptamine 2A receptor stably expressed in CHO cells at 1 uM; assay type: cell-based
Chain of 5-hydroxytryptamine receptor 2A (P28223 whole entry): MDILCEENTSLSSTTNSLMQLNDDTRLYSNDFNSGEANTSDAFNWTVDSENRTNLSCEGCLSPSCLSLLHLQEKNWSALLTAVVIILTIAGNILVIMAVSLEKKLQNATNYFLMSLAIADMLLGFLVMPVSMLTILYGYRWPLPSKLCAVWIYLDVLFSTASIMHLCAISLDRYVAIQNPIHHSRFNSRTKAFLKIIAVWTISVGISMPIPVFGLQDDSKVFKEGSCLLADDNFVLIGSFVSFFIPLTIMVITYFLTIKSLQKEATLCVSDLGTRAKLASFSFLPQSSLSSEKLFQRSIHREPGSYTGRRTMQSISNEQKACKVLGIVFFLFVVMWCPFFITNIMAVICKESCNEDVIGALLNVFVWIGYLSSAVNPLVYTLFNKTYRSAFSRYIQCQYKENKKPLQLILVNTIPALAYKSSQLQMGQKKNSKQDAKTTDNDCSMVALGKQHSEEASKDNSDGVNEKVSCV

[11] = biological target: T6, 5-hydroxytryptamine receptor 1F (Homo sapiens) (UniProt P30939); test: Inhibition of [3H]-5-HT binding to human cloned 5-hydroxytryptamine 1F receptor stably expressed in CHO cells at 1 uM; assay type: cell-based
T6 sequence (whole entry): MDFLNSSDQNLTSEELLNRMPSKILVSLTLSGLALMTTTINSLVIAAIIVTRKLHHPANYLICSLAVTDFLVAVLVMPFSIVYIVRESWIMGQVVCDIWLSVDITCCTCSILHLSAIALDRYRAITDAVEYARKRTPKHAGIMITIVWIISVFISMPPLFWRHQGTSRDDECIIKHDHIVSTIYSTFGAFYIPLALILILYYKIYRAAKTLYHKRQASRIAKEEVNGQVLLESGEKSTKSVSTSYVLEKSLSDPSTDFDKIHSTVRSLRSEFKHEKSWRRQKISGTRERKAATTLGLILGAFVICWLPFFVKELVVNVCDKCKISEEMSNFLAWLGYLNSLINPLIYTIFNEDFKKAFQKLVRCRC

D(2) dopamine receptor [12] = biological target: T7, D(2) dopamine receptor (Homo sapiens, UniProt P14416); test: Inhibition of [3H]spiperone binding to human cloned Dopamine receptor D2 stably expressed in CHO-K1 cells at 1 uM; assay type: cell-based
T7 sequence (P14416 whole entry): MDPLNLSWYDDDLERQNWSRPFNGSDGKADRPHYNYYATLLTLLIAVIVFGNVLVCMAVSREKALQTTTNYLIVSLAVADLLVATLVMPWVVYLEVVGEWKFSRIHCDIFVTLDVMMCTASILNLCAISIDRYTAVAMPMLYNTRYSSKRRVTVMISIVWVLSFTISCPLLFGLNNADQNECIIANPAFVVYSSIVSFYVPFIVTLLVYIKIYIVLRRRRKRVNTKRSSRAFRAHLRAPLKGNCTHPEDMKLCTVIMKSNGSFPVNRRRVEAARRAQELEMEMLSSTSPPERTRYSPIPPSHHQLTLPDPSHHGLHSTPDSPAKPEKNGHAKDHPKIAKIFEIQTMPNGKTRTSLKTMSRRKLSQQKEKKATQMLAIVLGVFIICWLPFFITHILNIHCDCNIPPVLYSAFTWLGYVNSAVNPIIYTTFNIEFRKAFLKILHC

D(2) dopamine receptor [13] = biological target: T7, D(2) dopamine receptor; test: Binding affinity against human cloned Dopamine receptor D2 stably expressed in CHO-K1 cells using [3H]spiperone; assay type: cell-based
D(3) dopamine receptor [14] = biological target: T4, D(3) dopamine receptor; test: Binding affinity against human cloned Dopamine receptor D3 stably expressed in CHO-K1 cells using [3H]spiperone; assay type: cell-based
D(4) dopamine receptor = biological target: T8, D(4) dopamine receptor (Homo sapiens, UniProt P21917); test: Binding affinity against human cloned Dopamine receptor D4 stably expressed in CHO-K1 cells using [3H]spiperone; assay type: cell-based
T8 sequence (P21917 whole entry): T5 sequence (whole entry)

[15] = biological target: T1, 5-hydroxytryptamine receptor 6; test: Inhibition of [3H]LSD binding to cloned human 5-hydroxytryptamine 6 receptor expressed in HeLa cells at 1 uM; assay type: cell-based

T1 sequence (P50406 whole entry): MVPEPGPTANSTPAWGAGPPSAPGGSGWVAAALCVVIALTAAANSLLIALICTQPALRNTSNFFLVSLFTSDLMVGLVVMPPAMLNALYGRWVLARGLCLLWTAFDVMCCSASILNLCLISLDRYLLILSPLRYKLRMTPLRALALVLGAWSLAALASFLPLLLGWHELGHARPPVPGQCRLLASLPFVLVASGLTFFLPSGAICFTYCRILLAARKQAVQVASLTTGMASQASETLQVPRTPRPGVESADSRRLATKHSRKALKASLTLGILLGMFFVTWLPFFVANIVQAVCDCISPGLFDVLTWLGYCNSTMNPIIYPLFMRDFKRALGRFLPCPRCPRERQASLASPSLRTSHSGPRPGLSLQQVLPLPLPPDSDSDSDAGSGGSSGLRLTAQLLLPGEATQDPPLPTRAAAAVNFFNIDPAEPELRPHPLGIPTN

Compound: O=S(=O)(c1cccc2ccccc12)n1cc(C2=CCNCC2)c2cc(F)ccc21
- IC50 [1]: 9 nM
- Ki [2]: 4 nM

Compound: Nc1ccc(S(=O)(=O)n2cc(C3=CCNCC3)c3ccccc32)cc1
- Ki [3]: 1670 nM
- inhibition [4]: 33%
- Ki [5]: 1550 nM
- IC50 [1]: 0.8 nM
- Ki [2]: 2 nM

Compound: O=S(=O)(c1ccc(F)cc1)n1cc(C2=CCNCC2)c2cc(F)ccc21
- IC50 [1]: 31 nM
- Ki [2]: 3 nM

Compound: CN1CC=C(c2cn(S(=O)(=O)c3ccc(F)cc3)c3ccccc23)CC1
- IC50 [1]: 42.7 nM
- Ki [2]: 5 nM

Compound: O=S(=O)(c1ccc(Cl)cc1)n1cc(C2=CCNCC2)c2cc(F)ccc21
- Ki [2]: 14 nM

Compound: CN1CC=C(c2cn(C(=O)Nc3ccccc3)c3ccccc23)CC1
- Ki [2]: 118 nM

Compound: Nc1ccc(S(=O)(=O)n2cc(C3=CCNCC3)c3cc(OCc4ccccc4)ccc32)cc1
- Ki [2]: 50 nM

Compound: O=S(=O)(c1ccc(C(F)(F)F)cc1)n1cc(C2=CCNCC2)c2ccccc21
- Ki [2]: 20 nM

Compound: CN1CC=C(c2cn(S(=O)(=O)c3ccccc3Cl)c3ccccc23)CC1
- IC50 [1]: 0.7 nM
- Ki [2]: 10 nM

Compound: O=S(=O)(c1ccccc1)n1cc(C2=CCNCC2)c2cc(F)ccc21
- Ki [2]: 2.4 nM

Compound: Nc1ccc(S(=O)(=O)n2cc(C3CCNCC3)c3cc(F)ccc32)cc1
- IC50 [1]: 1.3 nM
- Ki [2]: 2 nM

Compound: CN1CC=C(c2c[nH]c3ccccc23)CC1
- Ki [2]: 98 nM

Compound: O=S(=O)(c1ccccc1)n1cc(C2CCNCC2)c2ccccc21
- IC50 [1]: 19.5 nM
- Ki [2]: 12 nM

Compound: CN1CC=C(c2cn(S(=O)(=O)c3ccccc3F)c3ccccc23)CC1
- IC50 [1]: 3.9 nM
- Ki [2]: 10 nM

Compound: O=S(=O)(c1ccc(Cl)s1)n1cc(C2=CCNCC2)c2ccccc21
- IC50 [1]: 14.1 nM
- Ki [2]: 3 nM

Compound: O=S(=O)(c1ccccc1)n1cc(C2=CCN(Cc3ccccc3)CC2)c2ccccc21
- Ki [2]: 246 nM

Compound: Nc1ccc(S(=O)(=O)n2cc(C3CCNCC3)c3ccc(Cl)cc32)cc1
- Ki [3]: 115 nM
- inhibition [4]: 30%
- Ki [5]: > 2000 nM
- IC50 [1]: 8.5 nM
- inhibition [6]: 15%
- inhibition (D(3) dopamine receptor [7]): 7%
- inhibition [8]: 7%
- inhibition [9]: 10%
- Ki [2]: 3 nM
- inhibition [10]: 65%
- inhibition [11]: 16%
- inhibition (D(2) dopamine receptor [12]): 10%

Compound: CN1CC=C(c2cn(S(=O)(=O)c3cccc(Cl)c3)c3ccccc23)CC1
- IC50 [1]: 9.4 nM
- Ki [2]: 1 nM

Compound: CN1CC=C(c2cn(S(=O)(=O)c3ccccc3)c3ccccc23)CC1
- IC50 [1]: 13.8 nM
- Ki [2]: 2 nM

Compound: COc1ccc2c(c1)c(C1=CCNCC1)cn2S(=O)(=O)c1ccc2ccccc2c1
- IC50 [1]: 4.1 nM
- Ki [2]: 19 nM

Compound: O=S(=O)(c1ccc2ccccc2c1)n1cc(C2=CCNCC2)c2ccccc21
- Ki [2]: 27 nM

Compound: COc1ccc(S(=O)(=O)n2cc(C3=CCNCC3)c3ccccc32)cc1
- Ki [2]: 18 nM

Compound: CN1CC=C(c2cn(C(=O)c3ccccc3)c3ccccc23)CC1
- Ki [2]: 99 nM

Compound: Nc1ccc(S(=O)(=O)n2cc(C3=CCNCC3)c3ccc(Cl)cc32)cc1
- IC50 [1]: 11.2 nM
- Ki [2]: 3 nM

Compound: CC(C)(C)OC(=O)N1CC=C(c2cn(S(=O)(=O)c3ccccc3)c3ccccc23)CC1
- Ki [2]: 54 nM

Compound: Nc1ccc(S(=O)(=O)n2cc(C3=CCNCC3)c3cc(Br)ccc32)cc1
- IC50 [1]: 33.7 nM
- Ki [2]: 7 nM

Compound: O=S(=O)(c1ccccc1)n1cc(C2=CCNCC2)c2ccccc21
- IC50 [1]: 43 nM
- Ki [2]: 2 nM

Compound: COc1ccc2c(c1)c(C1=CCNCC1)cn2S(=O)(=O)c1ccc(N)cc1
- Ki [3]: 97 nM
- inhibition [4]: 27%
- Ki [5]: > 5000 nM
- IC50 [1]: 0.4 nM
- inhibition [9]: 32%
- Ki [2]: 3 nM

Compound: Nc1ccc(S(=O)(=O)n2cc(C3=CCNCC3)c3ccc([N+](=O)[O-])cc32)cc1
- Ki [2]: 31 nM

Compound: O=S(=O)(c1ccccc1)n1cc(C2CCNCC2)c2cc(F)ccc21
- Ki [2]: 20 nM

Compound: CCCCS(=O)(=O)n1cc(C2=CCNCC2)c2ccccc21
- Ki [2]: 77 nM

Compound: O=S(=O)(c1nccc2sncc12)n1cc(C2=CCNCC2)c2ccccc21
- IC50 [1]: 169 nM
- Ki [2]: 5 nM

Compound: Nc1ccc(S(=O)(=O)n2cc(C3=CCNCC3)c3cc([N+](=O)[O-])ccc32)cc1
- Ki [2]: 29 nM

Compound: O=S(=O)(c1ccccc1F)n1cc(C2=CCNCC2)c2ccccc21
- Ki [3]: 875 nM
- inhibition [4]: 11%
- Ki (D(2) dopamine receptor [13]): > 2000 nM
- IC50 [1]: 2.7 nM
- inhibition [6]: 57%
- Ki (D(3) dopamine receptor [14]): 741 nM
- inhibition [9]: 9%
- Ki [2]: 1 nM
- inhibition [10]: 50%
- inhibition [11]: 53%
- Ki (D(4) dopamine receptor): > 5000 nM

Compound: Nc1ccc(S(=O)(=O)n2cc(C3=CCNCC3)c3cc4c(cc32)OCO4)cc1
- IC50 [1]: 1.7 nM
- Ki [2]: 1 nM

Compound: CC(=O)N1CC=C(c2cn(S(=O)(=O)c3ccccc3)c3ccccc23)CC1
- inhibition [15]: 64%

Compound: Nc1ccc(S(=O)(=O)n2cc(C3=CCNCC3)c3cc(F)ccc32)cc1
- IC50 [1]: 9.7 nM
- Ki [2]: 1 nM
